By AC50 is commonly meant the midpoint of the concentration-response curve, whichever way the signal moves.

SMILES strings stand for the structures.

The target in one assay is T1, human PAH with the R408W mutation (A375 R408W cells) (Homo sapiens, UniProt P00439, R408W).
T1 construct: expressed in transfected cells
T1 sequence (P00439 1-452 R408W): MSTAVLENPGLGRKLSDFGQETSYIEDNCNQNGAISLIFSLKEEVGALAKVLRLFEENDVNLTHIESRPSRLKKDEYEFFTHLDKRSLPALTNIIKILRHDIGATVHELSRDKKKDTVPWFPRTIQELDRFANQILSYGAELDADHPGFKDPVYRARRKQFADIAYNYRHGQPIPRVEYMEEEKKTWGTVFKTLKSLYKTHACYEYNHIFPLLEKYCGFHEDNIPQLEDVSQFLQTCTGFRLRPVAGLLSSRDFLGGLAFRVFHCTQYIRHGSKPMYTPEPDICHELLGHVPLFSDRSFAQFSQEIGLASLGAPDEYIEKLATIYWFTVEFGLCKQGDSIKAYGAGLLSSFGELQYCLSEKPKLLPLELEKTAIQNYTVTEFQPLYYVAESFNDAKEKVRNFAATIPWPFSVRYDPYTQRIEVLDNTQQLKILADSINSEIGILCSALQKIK
Nature of the assay: Cell Based Phenylalanine Flux Assay. To be noted: A375 R408W cells; 24 hrs with compound, then 20 μM sepiapterin and 800 μM 13C9,15N-Phenylalanine for 4 hours; 13C-Tyrosine by LC-MS; average where tested multiple times. In short, it runs like this: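 A375 cells stably expressing human PAH R408W treated 24 h at 37° C with a 10-point 2-fold dose curve in duplicate, 0.5% DMSO. Then 20 μM sepiapterin and 800 μM 13C9,15N-Phe added for 4 h; 13C-Tyr in media measured by LC-MS to give AC50.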
`Cn1ccc(-c2nnc(C(=O)N3CCc4[nH]cnc4[C@H]3c3nc4cccc(C(F)(F)F)c4o3)o2)n1` [Example 832, (S)-(5-(1-methyl-1H-pyrazol-3-yl)-1,3,4-oxadiazol-2-yl)(4-(7-(trifluoromethyl)benzo[d]oxazol-2-yl)-6,7-dihydro-1H-imidazo[4,5-c]pyridin-5(4H)-yl)methanone]: the half-maximal activity concentration (AC50) was at most 0.5 µM.
Still for that read-out and setting: the same measure for `Cc1ccc2nc([C@H]3c4nc[nH]c4CCN3C(=O)c3nnc(-c4cnn(C)c4)o3)oc2c1` [Example 104, (R)-(5-(1-methyl-1H-pyrazol-4-yl)-1,3,4-oxadiazol-2-yl)(4-(6-methylbenzo[d]oxazol-2-yl)-6,7-dihydro-1H-imidazo[4,5-c]pyridin-5(4H)-yl)methanone]: at least 5 µM; for `O=C(c1ocnc1C(F)(F)F)N1CCc2[nH]cnc2[C@H]1c1nc2c(F)ccc(F)c2o1` [Example 795, (S)-(4-(4,7-difluorobenzo[d]oxazol-2-yl)-6,7-dihydro-1H-imidazo[4,5-c]pyridin-5(4H)-yl)(4-(trifluoromethyl)oxazol-5-yl)methanone]: at most 0.5 µM.
On to `Cn1cc(-c2ccc3c(C(=O)N4CCc5[nH]cnc5[C@@H]4c4nc5c(F)cccc5o4)cnn3c2)cn1` [Example 542, (R)-(4-(4-fluorobenzo[d]oxazol-2-yl)-6,7-dihydro-1H-imidazo[4,5-c]pyridin-5(4H)-yl)(6-(1-methyl-1H-pyrazol-4-yl)pyrazolo[1,5-a]pyridin-3-yl)methanone], for which the AC50 was in the range of 1 to 5 µM.
Still for that read-out and setting: the same measure for `Cc1cccc2oc([C@H]3c4nc[nH]c4CCN3C(=O)c3ccnn3C(F)F)nc12` [Example 450, (R)-(1-(difluoromethyl)-1H-pyrazol-5-yl)(4-(4-methylbenzo[d]oxazol-2-yl)-6,7-dihydro-1H-imidazo[4,5-c]pyridin-5(4H)-yl)methanone]: 1 to 5 µM; for `Cc1ccc(C)c2oc([C@@H]3c4nc[nH]c4CCN3C(=O)c3ocnc3C(F)F)nc12` [Example 890, (S)-(4-(difluoromethyl)oxazol-5-yl)(4-(4,7-dimethylbenzo[d]oxazol-2-yl)-6,7-dihydro-1H-imidazo[4,5-c]pyridin-5(4H)-yl)methanone]: at most 0.5 µM.
For the compound `Cc1ccc2c(C(=O)N3CCc4[nH]cnc4[C@@H]3c3nc4c(F)cccc4o3)cnn2c1` [Example 538, (R)-(4-(4-fluorobenzo[d]oxazol-2-yl)-6,7-dihydro-1H-imidazo[4,5-c]pyridin-5(4H)-yl)(6-methylpyrazolo[1,5-a]pyridin-3-yl)methanone], the AC50 fell in the range of 1 to 5 µM.
The same measure, in the same setting: the same measure for `O=C(c1ocnc1CC(F)F)N1CCc2[nH]cnc2[C@H]1c1nc2cccc(F)c2o1` [Example 863, (S)-(4-(2,2-difluoroethyl)oxazol-5-yl)(4-(7-fluorobenzo[d]oxazol-2-yl)-6,7-dihydro-1H-imidazo[4,5-c]pyridin-5(4H)-yl)methanone]: at most 0.5 µM.
Still for that read-out and setting: the same measure for `O=C(c1oc(N2CCOCC2)nc1C(F)F)N1CCc2[nH]cnc2[C@@H]1c1nc2cc(F)ccc2o1` [Example 414, (R)-(4-(difluoromethyl)-2-morpholinooxazol-5-yl)(4-(5-fluorobenzo[d]oxazol-2-yl)-6,7-dihydro-1H-imidazo[4,5-c]pyridin-5(4H)-yl)methanone]: 1 to 5 µM; for `Cc1nc(-c2cnn(C)c2)oc1C(=O)N1CCc2[nH]cnc2[C@@H]1c1nc2cccc(F)c2o1` [Example 595, (R)-(4-(7-fluorobenzo[d]oxazol-2-yl)-6,7-dihydro-1H-imidazo[4,5-c]pyridin-5(4H)-yl)(4-methyl-2-(1-methyl-1H-pyrazol-4-yl)oxazol-5-yl)methanone]: 1 to 5 µM; for `C[C@H](O)c1nc(C(F)F)c(C(=O)N2CCc3[nH]cnc3[C@H]2c2nc3c(F)cccc3o2)o1` [Example 227, (4-(difluoromethyl)-2-((S)-1-hydroxyethyl)oxazol-5-yl)((S)-4-(4-fluorobenzo[d]oxazol-2-yl)-6,7-dihydro-1H-imidazo[4,5-c]pyridin-5(4H)-yl)methanone]: at most 0.5 µM.
On the same count and under the same terms, the same measure for `O=C(c1cnn2cc(Br)ccc12)N1CCc2[nH]cnc2[C@H]1c1nc2cc(F)ccc2o1` [Example 69, (S)-(6-bromopyrazolo[1,5-a]pyridin-3-yl)(4-(5-fluorobenzo[d]oxazol-2-yl)-6,7-dihydro-1H-imidazo[4,5-c]pyridin-5(4H)-yl)methanone]: 0.5 to 1 µM.
For the compound `O=C(c1nnc(-c2c(F)cccc2F)o1)N1CCc2[nH]cnc2[C@H]1c1nc2cc(F)ccc2o1` [Example 25, (S)-(5-(2,6-difluorophenyl)-1,3,4-oxadiazol-2-yl)(4-(5-fluorobenzo[d]oxazol-2-yl)-6,7-dihydro-1H-imidazo[4,5-c]pyridin-5(4H)-yl)methanone], the AC50 was at most 0.5 µM.
On to `O=C(c1nnc(-c2ccc(C(F)(F)F)cc2)o1)N1CCc2[nH]cnc2[C@@H]1c1nc2cc(F)ccc2o1` [Example 89, (R)-(4-(5-fluorobenzo[d]oxazol-2-yl)-6,7-dihydro-1H-imidazo[4,5-c]pyridin-5(4H)-yl)(5-(4-(trifluoromethyl)phenyl)-1,3,4-oxadiazol-2-yl)methanone], for which the AC50 was 1 to 5 µM.
With `Cc1ccc2oc([C@H]3c4nc[nH]c4CCN3C(=O)c3nnc(-c4cnn(C(F)F)c4)o3)nc2c1` [Example 674, (R)-(5-(1-(difluoromethyl)-1H-pyrazol-4-yl)-1,3,4-oxadiazol-2-yl)(4-(5-methylbenzo[d]oxazol-2-yl)-6,7-dihydro-1H-imidazo[4,5-c]pyridin-5(4H)-yl)methanone], the AC50 was in the range of 1 to 5 µM.
For the compound `CC(C)(O)C1CCN(c2ccc3c(C(=O)N4CCc5[nH]cnc5[C@@H]4c4nc5cccc(F)c5o4)cnn3c2)CC1` [Example 367, (R)-(4-(7-fluorobenzo[d]oxazol-2-yl)-6,7-dihydro-1H-imidazo[4,5-c]pyridin-5(4H)-yl)(6-(4-(2-hydroxypropan-2-yl)piperidin-1-yl)pyrazolo[1,5-a]pyridin-3-yl)methanone], the concentration at half-maximal activity (AC50) fell in the range of 1 to 5 µM.
On to `CC(F)(F)c1ncoc1C(=O)N1CCc2[nH]cnc2[C@@H]1c1nc2c(F)cccc2o1` [Example 652, (R)-(4-(1,1-difluoroethyl)oxazol-5-yl)(4-(4-fluorobenzo[d]oxazol-2-yl)-6,7-dihydro-1H-imidazo[4,5-c]pyridin-5(4H)-yl)methanone], for which the AC50 was in the range of 1 to 5 µM.
Still for that read-out and setting: in the case of `O=C(c1nnc(-c2cnn(C3CCC3)c2)o1)N1CCc2[nH]cnc2[C@@H]1c1nc2c(F)ccc(F)c2o1` [Example 812, (R)-(5-(1-cyclobutyl-1H-pyrazol-4-yl)-1,3,4-oxadiazol-2-yl)(4-(4,7-difluorobenzo[d]oxazol-2-yl)-6,7-dihydro-1H-imidazo[4,5-c]pyridin-5(4H)-yl)methanone] it was 0.5 to 1 µM.
The same measure, in the same setting: the same measure for `CC(C)(O)c1nc(Cl)c(C(=O)N2CCc3[nH]cnc3[C@H]2c2nc3ccc(F)cc3o2)o1` [Example 269, (S)-(4-chloro-2-(2-hydroxypropan-2-yl)oxazol-5-yl)(4-(6-fluorobenzo[d]oxazol-2-yl)-6,7-dihydro-1H-imidazo[4,5-c]pyridin-5(4H)-yl)methanone]: 0.5 to 1 µM; for `Cc1ccc2nc([C@@H]3c4nc[nH]c4CCN3C(=O)c3nnc(-c4cc[nH]n4)o3)oc2c1` [Example 359, (S)-(5-(1H-pyrazol-3-yl)-1,3,4-oxadiazol-2-yl)(4-(6-methylbenzo[d]oxazol-2-yl)-6,7-dihydro-1H-imidazo[4,5-c]pyridin-5(4H)-yl)methanone]: 0.5 to 1 µM; for `Cc1ccc2nc([C@@H]3c4nc[nH]c4CCN3C(=O)c3nnc(-c4cnn(C)c4)o3)oc2c1` [Example 103, (S)-(5-(1-methyl-1H-pyrazol-4-yl)-1,3,4-oxadiazol-2-yl)(4-(6-methylbenzo[d]oxazol-2-yl)-6,7-dihydro-1H-imidazo[4,5-c]pyridin-5(4H)-yl)methanone]: 1 to 5 µM.

Still in this assay, the particulars now being: A375 cells expressing R408W PAH; 24 hrs with compound, then 20 μM sepiapterin and 800 μM 13C9,15N-Phenylalanine for 4 hours; 13C-Tyrosine by LC-MS; average where tested multiple times.
Regarding `Cn1cc(-c2ncc(C(=O)N3CCc4[nH]cnc4C3c3nc4cc(F)ccc4o3)o2)cn1` (stereo not shown), the AC50 is 1 to 5 µM.
Same read-out and setting: in the case of `O=C(c1nnc(NC2CC2)o1)N1CCc2[nH]cnc2C1c1nc2cc(F)ccc2o1` (stereo not shown) it was 1 to 5 µM; in that of `O=C(c1cnn2cc(N3CCC(O)CC3)ccc12)N1CCc2[nH]cnc2C1c1nc2ccc(F)c(F)c2o1` (stereo not shown), 1 to 5 µM; in that of `CC1(C)CN(C(=O)c2ocnc2C(F)F)C(c2nc3cc(F)ccc3o2)c2nc[nH]c21` (stereo not shown), at least 5 µM.
Consider `Cc1cccc2nc([C@H]3c4nc[nH]c4CCN3C(=O)c3cnn4cc(N5CCC(O)CC5)ccc34)oc12` (single isomer, unassigned), for which the AC50 was at least 5 µM.
Still for that read-out and setting: the same measure for `CN(C)CCOc1ccc2c(C(=O)N3CCc4[nH]cnc4C3c3nc4cc(F)ccc4o3)cnn2c1` (stereo not shown): at least 5 µM; for `Cc1nc(-c2cnn(C)c2)sc1C(=O)N1CCc2[nH]cnc2C1c1nc2cc(F)ccc2o1` (stereo not shown): at least 5 µM; for `Cn1cnnc1C(=O)N1CCc2[nH]cnc2C1c1nc2ccc(F)cc2o1` (stereo not shown): 1 to 5 µM.
`O=C(c1cnco1)N1CCc2[nH]cnc2C1c1nc2c(F)c(F)ccc2o1` (stereo not shown): the half-maximal activity concentration (AC50) was in the range of 1 to 5 µM.
Still for that read-out and setting: in the case of `CC(C)(O)c1cc(C(=O)N2CCc3[nH]cnc3C2c2nc3ccc(F)cc3o2)no1` (stereo not shown) it was 1 to 5 µM.

Values taken from patent US20250171437A1 (Agios Pharmaceuticals,Inc., priority 2022, published 2025).
